Experimental data as given in US6531459B1, “Vitamin D derivatives with phosphorus atoms in the side chains” (Schering Aktiengesellschaft, priority 1997, dated 2003).

Target: T1, vitamin D receptor (Sus scrofa, UniProt A3RGC1)
T1 construct: Receptor-containing protein extract is incubated in a test tube with ^3H-calcitriol; from tissue; host or cells: intestines of juvenile pigs (protein extract)
T1 sequence (A3RGC1 1-427): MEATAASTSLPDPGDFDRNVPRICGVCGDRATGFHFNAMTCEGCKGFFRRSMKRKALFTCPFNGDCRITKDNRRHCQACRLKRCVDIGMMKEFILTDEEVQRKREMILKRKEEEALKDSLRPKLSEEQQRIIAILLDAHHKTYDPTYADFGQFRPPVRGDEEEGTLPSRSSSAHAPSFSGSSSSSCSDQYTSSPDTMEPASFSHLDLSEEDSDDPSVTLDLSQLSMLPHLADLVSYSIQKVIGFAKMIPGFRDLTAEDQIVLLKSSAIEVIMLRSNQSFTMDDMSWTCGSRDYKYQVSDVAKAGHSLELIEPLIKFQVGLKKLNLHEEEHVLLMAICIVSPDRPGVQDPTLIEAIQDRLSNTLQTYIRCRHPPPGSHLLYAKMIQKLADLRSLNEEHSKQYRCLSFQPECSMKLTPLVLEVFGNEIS
Assay: calcitriol-receptor test (competition with 3H-calcitriol)
Format: binding
Details: concentration of test substance / concentration of calcitriol at 50% competition; pig intestine protein extract, 3H-calcitriol 5×10^−10 mol/l
Protocol: It is carried out using a protein extract from the intestines of juvenile pigs. […] Then, the samples are centrifuged at 10,000 g for 5 minutes at 4° C. The supernatant is decanted and measured in a β-counter after 1 hour of equilibration in Picofluor 15™.
It is defined as a quotient of the concentrations of the respective test substance and the reference substance, which are necessary for 50% competition:
KF=Concentration of test substance at 50% competition/Concentration of reference substance at 50% competition

C=C1/C(=C\C=C2/CCC[C@]3(C)[C@@H]([C@H](C)/C=C/C(=O)CP(=O)(OC)OC)CC[C@@H]23)C[C@@H](O)C[C@@H]1O [Compound 5, (5Z,7E,22E)-(1S,3R)-(1,3-Dihydroxy-24-oxo-24a-homo-9,10-secochola-5,7,10(19),22-tetraen-24a-yl)phosphonic acid dimethyl ester]
KF (competition factor): 10

C=C1/C(=C\C=C2/CCC[C@]3(C)[C@@H]([C@H](C)/C=C/C(=O)CP(=O)(OCC)OCC)CC[C@@H]23)C[C@@H](O)C[C@@H]1O [Compound 9, (5Z,7E,22E)-(1S,3R)-(1,3-Dihydroxy-24-oxo-24a-homo-9,10-secochola-5,7,10(19),22-tetraen-24a-yl)phosphonic acid diethyl ester]
KF (competition factor): 10

C=C1/C(=C\C=C2/CCC[C@]3(C)[C@@H]([C@H](C)/C=C/C(=O)CP(=O)(OC(C)C)OC(C)C)CC[C@@H]23)C[C@@H](O)C[C@@H]1O [Compound 13, (5Z,7E,22E)-(1S,3R)-(1,3-Dihydroxy-24-oxo-24a-homo-9,10-secochola-5,7,10(19),22-tetraen-24a-yl)phosphonic acid bis(1-methylethyl)ester]
KF (competition factor): 6

C=C1/C(=C\C=C2/CCC[C@]3(C)[C@@H]([C@H](C)/C=C/C(CP(=O)(OCC)OCC)P(=O)(OCC)OCC)CC[C@@H]23)C[C@@H](O)C[C@@H]1O (stereo partly drawn) [Compound 29, (5Z,7E,22E)-(1S,3R,24ξ)-(1,3-Dihydroxy-24a-homo-9,10-secochola-5,7,10(19),22-tetraene-24,24a-diyl)bis[phosphonic acid diethyl ester]]
KF (competition factor): 10

C=C1C(=CC=C2CCCC3(C)C2CCC3C(C)C=CC(=O)C(C)(C)P(=O)(OCC)OCC)CC(O)CC1O [Compound 53, (5Z,7E,22E)-(1S,3R)-(1,3-Dihydroxy-24-oxo-9,10-secocholesta-5,7,10(19),22-tetraen-25-yl)phosphonic acid diethyl ester]
KF (competition factor): 12

C=C1/C(=C\C=C2/CCC[C@]3(C)[C@@H]([C@H](C)/C=C/C(=O)C(CC)(CC)P(=O)(OCC)OCC)CC[C@@H]23)C[C@@H](O)C[C@@H]1O [Compound 57, (5Z,7E,22E)-(1S,3R)-(1,3-Dihydroxy-26,27-dimethyl-24-oxo-9,10-secocholesta-5,7,10(19),22-tetraen-25-yl)phosphonic acid diethyl ester]
KF (competition factor): 16

C=C1C(=CC=C2CCCC3(C)C2CCC3C(C)C=CC(O)P(=O)(OC(C)C)OC(C)C)CC(O)CC1O [Compound 65b, (5Z,7E,22E)-(1S,3R,24R)-(1,3,24-trihydroxy-9,10-secochola-5,7,10(19),22-tetraen-24-yl)phosphonic acid-bis(1-methylethyl)ester]
KF (competition factor): 10
